Consider eleven compounds from ChEMBL document CHEMBL3774329, “Synthesis and Evaluation of Oxyguanidine Analogues of the Cysteine Protease Inhibitor WRR-483 against Cruzain” (ACS Med Chem Lett, 2016).

The target in one series is Cytochrome P450 2D6 (Homo sapiens, UniProt P10635). Nature of the series: Inhibition of CYP2D6 in human liver microsomes at 1 to 10 uM after 10 mins in presence of NADPH. It is filed as ADME.
In series [1] the target is T1, Cysteine proteinase 1 (Entamoeba histolytica) (UniProt Q01957).
T1 sequence (whole entry): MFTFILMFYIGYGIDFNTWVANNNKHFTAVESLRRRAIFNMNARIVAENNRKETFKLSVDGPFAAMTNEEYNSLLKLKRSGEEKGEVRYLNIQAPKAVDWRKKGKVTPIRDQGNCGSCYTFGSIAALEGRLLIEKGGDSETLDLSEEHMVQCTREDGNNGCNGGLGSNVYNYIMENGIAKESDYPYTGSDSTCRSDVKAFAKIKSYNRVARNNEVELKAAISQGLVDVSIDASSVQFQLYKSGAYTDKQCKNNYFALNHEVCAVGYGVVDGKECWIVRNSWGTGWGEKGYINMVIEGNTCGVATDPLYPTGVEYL
The series is described as follows: Inhibition of Entamoeba histolytica cysteine protease1 using ZRR-AMC peptide as substrate assessed as release of AMC at 250 pM to 1 uM incubated for 15 mins by fluorometric analysis.

Series [2] deals with Liver microsome. Nature of the series: Stability of compound in rat liver microsomes at 1 uM measured at 5 to 60 mins in presence of NADPH by LC-MS/MS analysis. The series is classed as ADME.
Series [3] can be described thus: Stability of compound in mouse liver microsomes at 1 uM measured at 5 to 60 mins in presence of NADPH by LC-MS/MS analysis. It is filed as ADME. Background: Microsomes from liver hold many membrane-bound enzymes, among them those of drug oxidation.
Series [4] concerns Rattus norvegicus. Nature of the series: Drug metabolism in Sprague-Dawley rat assessed as WRR-671 formation at 3 mg/kg, iv over 8 hrs by LC-MS/MS analysis. The series is classed as ADME, organism-based. The following applies: in vivo.
In series [5] the test system is Liver microsome. The series is described as follows: Stability of compound in human liver microsomes at 1 uM measured at 5 to 60 mins in presence of NADPH by LC-MS/MS analysis. The series is classed as ADME.
The target of series [6] is Cruzipain (Trypanosoma cruzi) (UniProt P25779). The series is described as follows: Inhibition of His-tagged recombinant Trypanosoma cruzi cruzain using Z-Phe-Arg-AMC as substrate assessed as ratio of Kinact to Ki preincubated for 5 mins at pH 8 by spectrofluorometric analysis.
The target is the same in series [7]. The series is described as follows: Inhibition of His-tagged recombinant Trypanosoma cruzi cruzain using Z-Phe-Arg-AMC as substrate assessed as ratio of Kinact to Ki preincubated for 5 mins at pH 5.5 by spectrofluorometric analysis.
The test system of a further series is Trypanosoma cruzi. The series is described as follows: Antiparasitic activity against Trypanosoma cruzi CA-I/72 trypomastigote infected in mouse C2C12 cells after 72 hrs by DAPI-staining based microscopic analysis. The series is classed as functional, organism-based. The following applies: CA-I/72, C2C12, 72 h.
Series [8] addresses Cruzipain (Trypanosoma cruzi) (UniProt P25779). The series is described as follows: Ratio of Kinact/Ki at pH 8 to Kinact/Ki at pH 5.5 for inhibition of His-tagged recombinant Trypanosoma cruzi cruzain.
Series [9] has the same target. The series is described as follows: Ratio of Kinact/Ki at pH 5.5 to Kinact/Ki at pH 8 for inhibition of His-tagged recombinant Trypanosoma cruzi cruzain.
Series [10] deals with Rattus norvegicus. The series is described as follows: Drug level in Sprague-Dawley rat treated with WRR-668 at 3 mg/kg, iv over 8 hrs by LC-MS/MS analysis. The note with it: in vivo. It is filed as ADME, organism-based.
In another series the target is Cytochrome P450 2C9 (Homo sapiens, UniProt P11712). The series is described as follows: Inhibition of CYP2C9 in human liver microsomes at 1 to 10 uM after 10 mins in presence of NADPH. The series is classed as ADME.
Another series concerns Plasma. The series is described as follows: Drug degradation in C57BL/6 mouse plasma assessed as proteolytic cleavage in presence of EDTA by LC-MS/MS analysis. It is filed as ADME, cell-free.

pEC50: −log10 of the molar value. Calls of active or inactive are those of the source. The rule behind the calls is not given here. Some results are limits rather than exact numbers.

Sequence of Cruzipain (Trypanosoma cruzi) (P25779 123-467 limits assumed): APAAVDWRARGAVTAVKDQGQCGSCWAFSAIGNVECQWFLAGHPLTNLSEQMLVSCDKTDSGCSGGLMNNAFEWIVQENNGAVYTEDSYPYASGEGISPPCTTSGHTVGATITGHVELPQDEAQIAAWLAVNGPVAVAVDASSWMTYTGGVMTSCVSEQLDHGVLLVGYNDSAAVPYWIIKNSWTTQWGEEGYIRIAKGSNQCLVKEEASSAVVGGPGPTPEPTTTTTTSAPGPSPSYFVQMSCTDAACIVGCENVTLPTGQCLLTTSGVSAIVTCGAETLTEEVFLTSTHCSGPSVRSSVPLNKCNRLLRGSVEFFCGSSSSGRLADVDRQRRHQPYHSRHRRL
Sequence of Cytochrome P450 2D6 (P10635 whole entry): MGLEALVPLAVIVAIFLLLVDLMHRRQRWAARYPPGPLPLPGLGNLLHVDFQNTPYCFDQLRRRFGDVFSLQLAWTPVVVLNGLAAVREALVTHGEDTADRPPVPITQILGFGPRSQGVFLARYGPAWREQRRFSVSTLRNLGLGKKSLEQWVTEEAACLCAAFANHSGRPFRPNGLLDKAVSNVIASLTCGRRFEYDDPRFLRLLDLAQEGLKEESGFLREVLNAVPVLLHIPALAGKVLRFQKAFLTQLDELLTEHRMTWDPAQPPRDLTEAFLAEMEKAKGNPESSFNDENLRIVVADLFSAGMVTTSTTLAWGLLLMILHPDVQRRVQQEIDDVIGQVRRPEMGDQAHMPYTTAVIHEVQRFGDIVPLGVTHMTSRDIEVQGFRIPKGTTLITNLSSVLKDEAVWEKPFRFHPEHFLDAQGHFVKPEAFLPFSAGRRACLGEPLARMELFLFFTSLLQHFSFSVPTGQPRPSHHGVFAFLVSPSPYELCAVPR
Sequence of Cytochrome P450 2C9 (P11712 whole entry): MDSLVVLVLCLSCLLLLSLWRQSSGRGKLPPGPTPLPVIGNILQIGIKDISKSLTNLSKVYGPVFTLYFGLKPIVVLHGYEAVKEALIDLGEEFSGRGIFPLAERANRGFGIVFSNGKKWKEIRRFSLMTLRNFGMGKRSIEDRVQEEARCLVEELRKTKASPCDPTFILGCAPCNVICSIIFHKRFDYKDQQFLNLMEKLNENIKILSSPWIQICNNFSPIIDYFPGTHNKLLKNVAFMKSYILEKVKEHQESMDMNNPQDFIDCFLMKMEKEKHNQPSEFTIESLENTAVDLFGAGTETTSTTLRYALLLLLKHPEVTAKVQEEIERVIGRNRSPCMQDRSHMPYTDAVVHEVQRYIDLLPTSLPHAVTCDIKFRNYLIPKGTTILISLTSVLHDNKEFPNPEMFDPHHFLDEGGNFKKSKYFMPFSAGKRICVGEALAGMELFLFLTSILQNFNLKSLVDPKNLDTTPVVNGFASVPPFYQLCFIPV

As to `CN1CCN(C(=O)N[C@@H](CCCONC(=N)N)C(=O)N[C@H](/C=C/S(=O)(=O)c2ccccn2)CCc2ccccc2)CC1`, the “inhibition (INH)” value on Cytochrome P450 2D6 is “Active”. Besides, the inhibition result in series [1] was “Active”. Also, the Stability entry (in the series on Liver microsome [2]; in series [3]; in the series with Liver microsome [5]) was “Stable” each time. Besides, the Drug metabolism entry in the series on Rattus norvegicus [4] is “metabolite_detected”. Also, the Ratio in series [6] came to 308000 M⁻¹ s⁻¹; in series [7] it was 214000 M⁻¹ s⁻¹.

Consider `CONC(=N)NCCC[C@H](NC(=O)N1CCN(C)CC1)C(=O)N[C@H](/C=C/S(=O)(=O)c1ccccc1)CCc1ccccc1`, for which, in the series on Trypanosoma cruzi, the pEC50 (commonly the negative decadic logarithm of the EC50, by convention in mol/L) was 6.57. Moreover, the Ratio is over 3 in [8], 65700 M⁻¹ s⁻¹ in series [6] and 9100 M⁻¹ s⁻¹ in series [7]. Besides, the “inhibition (INH)” value on Cytochrome P450 2D6 is “Active”.

Take `CN1CCN(C(=O)N[C@@H](CCCONC(=N)N)C(=O)N[C@H](/C=C/S(=O)(=O)c2ccccc2)CCc2ccccc2)CC1.Cl.Cl`: the “inhibition (INH)” value at Cytochrome P450 2D6 was “Active”. Also, the Ratio is 53400 M⁻¹ s⁻¹ in [6] and 43300 M⁻¹ s⁻¹ in series [7].

In the case of `CN1CCN(C(=O)N[C@@H](CCONC(=N)N)C(=O)N[C@H](/C=C/S(=O)(=O)c2ccccc2)CCc2ccccc2)CC1`, the Ratio was found to be 138000 M⁻¹ s⁻¹ in series [6] and 93100 M⁻¹ s⁻¹ in series [7].

For `CN1CCN(C(=O)N[C@@H](Cc2ccccc2)C(=O)N[C@H](/C=C/S(=O)(=O)c2ccccc2)CCc2ccccc2)CC1`, the Ratio in series [9] was over 5; in series [6] it was 32500 M⁻¹ s⁻¹; in series [7] it was 158000 M⁻¹ s⁻¹.

Consider `CN1CCN(C(=O)N[C@@H](CCCNC(=N)N)C(=O)N[C@H](/C=C/S(=O)(=O)c2ccccc2)CCc2ccccc2)CC1`, for which the Ratio in series [8] was over 3; in [6], 113000 M⁻¹ s⁻¹; in series [7], 36600 M⁻¹ s⁻¹.

As for `CN1CCN(C(=O)N[C@@H](CCCNC(=N)N)C(=O)N[C@H](/C=C/S(=O)(=O)c2ccccn2)CCc2ccccc2)CC1`, the inhibition result in [1] is “Active”. The Ratio came to 3100 M⁻¹ s⁻¹ in [6] and 8100 M⁻¹ s⁻¹ in series [7].

Consider `CN1CCN(C(=O)N[C@@H](CCCO)C(=O)N[C@H](/C=C/S(=O)(=O)c2ccccc2)CCc2ccccc2)CC1`, for which the Drug metabolism result in the series with Rattus norvegicus [10] is recorded as “metabolite_detected”.

As to `CN1CCN(C(=O)N[C@@H](CCCONC(=N)N)C(=O)N[C@H](/C=C/S(=O)(=O)c2ncccn2)CCc2ccccc2)CC1`, the Ratio in [9] was over 5; in series [6] it was 1500 M⁻¹ s⁻¹; in [7], 320000 M⁻¹ s⁻¹.

Turning to `CN1CCN(C(=O)N[C@@H](CCCCNC(=N)N)C(=O)N[C@H](/C=C/S(=O)(=O)c2ccccc2)CCc2ccccc2)CC1`, the values for the Ratio in series [8], in series [6] and in series [7] were over 3, 59700 M⁻¹ s⁻¹ and 11000 M⁻¹ s⁻¹, respectively.

With `CONC(=N)NCCC[C@H](NC(=O)N1CCN(C)CC1)C(=O)N[C@H](/C=C/S(=O)(=O)c1ccccn1)CCc1ccccc1`, the “inhibition (INH)” value at Cytochrome P450 2C9 and at Cytochrome P450 2D6 was “Active” each time. The figures for the Ratio in [8], in [6] and in series [7] were over 3, 1.17e+06 M⁻¹ s⁻¹ and 25000 M⁻¹ s⁻¹, respectively. Also, the inhibition result in series [1] was “Active”. For the same compound, the Stability result with Liver microsome [2] is recorded as “Stable”; in [3], “Stable”; with Liver microsome [5], “Stable”; in the series on Plasma it was “Unstable”.
